Consider 5 compounds from patent US10961278B2, “Vancomycin derivative, preparation method, pharmaceutical composition and use thereof” (SHANGHAI INSTITUTE OF MATERIA MEDICA, CHINESE ACADEMY OF …, priority 2016, dated 2021).

Values after ≈ are worked out from the molar mass of the structure shown. “Also recorded” adds a separate entry of the source. Where two headings read alike, the source gives them in different places. A value given as a limit tells only on which side of the number the result lay.

The conditions of data set [1]: male, CD-1, mouse, in vivo, iv, 5 mg/kg.
The next data set is described as follows: in vivo. The settings on record: male, CD-1, mouse, iv, 5 mg/kg.
Data set [2] relates to vancomycin-sensitive Staphylococcus aureus Newman strain. Briefly: In vitro antibacterial activity assay (MIC, CLSI dilution method). In kind it is cell-based. The settings on record: Staphylococcus aureus, 16 h, S. aureus Newman, 37° C.
Data set [3] deals with vancomycin-middle resistant Staphylococcus aureus Mu50 strain. Described as above. In kind it is cell-based.
Data set [4] concerns Staphylococcus aureus USA300 LAC strain (CA-MRSA). In kind it is in vivo. The settings on record: for in vivo antibacterial activity against methicillin-resistant Staphylococcus aureus, comparison with positive controls: BALB/c mice, 7 mg/kg i.p., 10 days.
A short description of data set [5]: In vivo pharmacokinetic assay in mice. The settings on record: for AUC(0-inf) / AUC(0-t) / MRT inf / half-life: male, CD-1, mouse, in vivo, iv, 5 mg/kg.
Data set [6] deals with HL-7702 cells (human liver cells). Put plainly: Liver cytotoxicity assay (CCK8 cell viability). In kind it is cell-based. The settings on record: HL-7702 cells, 10, 50, 100 μM, 72 h. The protocol:
(§1) Liver and kidney cell viability assays were performed using the Cell Activity Assay Kit CCK8 (Cell Counting Kit-8) method. HK-2 cells (human renal proximal tubular epithelial cells) and HL-7702 cells (human liver cells) in logarithmic growth phase were inoculated to a 96-well culture plate at a suitable density (about 5000 cells), at 100 μL per well. […] Three replicate wells were set for each concentration, and the physiological saline vehicle control well corresponding to each concentration and a well for cell-free zero-adjustment were set. After the treatment, 10 μL of CCK8 detection solution was added into each well, the incubation was performed at 37° C. for about 1.5 h. The optical density (OD value) at 450 nm was measured on a […] microplate reader. The OD value was converted to cell viability value according to the following equation: […] wherein, ODC represents the optical density obtained by different concentrations of the compounds to be tested, C represents the concentration of the compound, and ODC=0 represents the optical density obtained without addition of the compound to be tested.

Data set [7] has as its system HK-2 cells (human renal proximal tubular epithelial cells). Briefly: Kidney cytotoxicity assay (CCK8 cell viability). In kind it is cell-based. The settings on record: HK-2 cells, 10, 50, 100 μM, 72 h. The procedure: as §1
[8] abbreviates: female BALB/c mice, USA300 LAC retro-orbital, single dose 7 mg/kg intraperitoneally 1 h after infection, after 10 days.
Setting [9] is: male CD-1 mice, intravenous single dose 5 mg/kg.
[10] abbreviates: Staphylococcus aureus, 16 h, read-out: MIC Mu50.

Usually AUC(0-inf) stands for total exposure, with the tail of the curve extrapolated. Read a low AUC(0-inf) as less exposure. A word on the AUC(0-t): it is the area under the concentration-time curve up to a stated or last time point. Higher therefore signals more exposure. In general, MRT inf refers to the average time that molecules of a dose stay in the body. As a reminder, the half-life is how long it takes for the measured level to halve. Lower therefore signals fast loss. One may read the MIC as the lowest concentration found to suppress growth. In data set [1], `CN[C@H](CC(C)C)C(=O)N[C@H]1C(=O)N[C@@H](CC(N)=O)C(=O)N[C@H]2C(=O)N[C@H]3C(=O)N[C@H](C(=O)N[C@H](C(=O)O)c4cc(O)c(CNCCCNC(=O)[C@H](O)[C@@H](O)[C@H](O)[C@H](O)CO)c(O)c4-c4cc3ccc4O)[C@H](O)c3ccc(c(Cl)c3)Oc3cc2cc(c3OC2O[C@H](CO)C(O)C(O)[C@H]2O[C@@H]2CC(C)[C@@H](O)C(C)(NCc3ccc(-c4ccc(C(F)(F)F)cc4)cc3)C2)Oc2ccc(cc2Cl)[C@H]1O` (stereo partly drawn) [Van016] displayed a CL_obs of 6.4 ± 1.39 mL/min/kg and a VSS_obs of 1.826 ± 0.334 L/kg. Further, in “in vivo”, the AUC(0-inf) came out at 13400 ± 12700 ng·h/mL, the AUC(0-t) was 10700 ± 2060 ng·h/mL, the MRT inf is 4.79 ± 0.24 h and the half-life was 3.72 ± 0.7 h. In data set [2] (NEWMAN), this compound came in with an MIC not above 0.0625 µg/mL. For the same compound, the MIC in data set [3] (Staphylococcus aureus, 16 h, S. aureus Mu50, 37° C., read-out: MIC Mu50) is 0.25 µg/mL (≈ 0.128 µM). Moreover, in data set [4], the “in vivo antibacterial activity against methicillin-resistant Staphylococcus aureus, comparison with positive controls” value (“in vivo antibacterial activity” for short) is recorded as “better activity than vancomycin”. This compound also had a survival rate in data set [4] (setting [8]) of 60.0%.

`CN[C@H](CC(C)C)C(=O)N[C@H]1C(=O)N[C@@H](CC(N)=O)C(=O)N[C@H]2C(=O)N[C@@H]3C(=O)N[C@H](C(=O)N[C@H](C(=O)O)c4cc(O)c(CNC5C(O)OC(CO)[C@H](O)[C@@H]5O)c(O)c4-c4cc3ccc4O)[C@H](O)c3ccc(c(Cl)c3)Oc3cc2cc(c3O[C@@H]2O[C@H](CO)C(O)C(O)[C@H]2O[C@H]2CC(C)(NCc3ccc(-c4ccc(C(F)(F)F)cc4)cc3)[C@H](O)[C@H](C)O2)Oc2ccc(cc2Cl)[C@H]1O` (stereo partly drawn) [Van032] showed an MIC in data set [2] not above 0.0625 µg/mL. In data set [5] (setting [9]), this compound gave a CL_obs of 3.45 ± 0.40 mL/min/kg and a VSS_obs of 0.9 ± 0.18 L/kg. In data set [5], the AUC(0-inf) worked out at 24300 ± 2800 ng·h/mL, the AUC(0-t) was 20100 ± 1710 ng·h/mL, the MRT inf came to 4.41 ± 1.23 h and the half-life was 3.45 ± 1.26 h. For the same compound, the MIC in data set [3] (setting [10]) was not above 0.0625 µg/mL. Moreover, the “in vivo antibacterial activity” value in data set [4] is “better activity than vancomycin”. For the same compound, the survival rate in data set [4] (setting [8]) was determined as 73.3%.

Regarding `CN[C@H](CC(C)C)C(=O)N[C@H]1C(=O)N[C@@H](CC(N)=O)C(=O)N[C@H]2C(=O)N[C@H]3C(=O)N[C@H](C(=O)N[C@H](C(=O)O)c4cc(O)c(CNCCO[C@@H]5OC(CO)[C@H](O)C(O)C5O)c(O)c4-c4cc3ccc4O)[C@H](O)c3ccc(c(Cl)c3)Oc3cc2cc(c3OC2O[C@H](CO)C(O)C(O)[C@H]2O[C@@H]2CC(C)[C@@H](O)C(C)(NCc3ccc(-c4ccc(C(F)(F)F)cc4)cc3)C2)Oc2ccc(cc2Cl)[C@H]1O` (stereo partly drawn) [Van037], the “toxicity in liver cells” value in data set [6] was “less toxicity in liver cells than vancomycin and telavancin”. Also, the MIC in data set [2] is not above 0.0625 µg/mL. In data set [5] (setting [9]), the CL_obs is reported as 4.42 ± 1.42 mL/min/kg and the VSS_obs worked out at 1.077 ± 0.449 L/kg. In data set [5], this compound had an AUC(0-inf) of 20000 ± 5490 ng·h/mL, an AUC(0-t) of 16600 ± 4960 ng·h/mL, an MRT inf of 4.21 ± 2.08 h and a half-life of 2.94 ± 1.39 h. Further, the MIC in data set [3] (setting [10]) is 0.25 µg/mL (≈ 0.13 µM). Besides, in data set [4] (7 mg/kg), the “in vivo antibacterial activity” value is “better activity than vancomycin; also recorded: comparable activities with telavancin”. The compound also gave a survival rate in data set [4] (setting [8]) of 86.6%. Besides, in data set [7], the “toxicity in kidney cells” value is “toxicity less than vancomycin and comparable to telavancin”.

On to `CN[C@H](CC(C)C)C(=O)N[C@H]1C(=O)N[C@@H](CC(N)=O)C(=O)N[C@H]2C(=O)N[C@@H]3C(=O)N[C@H](C(=O)N[C@H](C(=O)O)c4cc(O)c(CNC5C(O)OC(CO)[C@H](O)[C@@H]5O)c(O)c4-c4cc3ccc4O)[C@H](O)c3ccc(c(Cl)c3)Oc3cc2cc(c3O[C@@H]2O[C@H](CO)C(O)C(O)[C@H]2O[C@H]2CC(C)(NCc3ccc(-c4ccc(Cl)cc4)cc3)[C@H](O)[C@H](C)O2)Oc2ccc(cc2Cl)[C@H]1O` (stereo partly drawn) [Van038], for which the MIC in data set [2] is not above 0.0625 µg/mL. Further, in data set [5] (setting [9]), the CL_obs came to 7.0 ± 1.38 mL/min/kg and the VSS_obs worked out at 1.754 ± 0.38 L/kg. Moreover, in data set [5], the AUC(0-inf) is 12200 ± 2490 ng·h/mL, the AUC(0-t) turned out to be 12100 ± 2480 ng·h/mL, the MRT inf was 4.18 ± 0.34 h and the half-life is 3.81 ± 0.31 h. Further, the MIC in data set [3] (setting [10]) was 0.125 µg/mL (≈ 0.0679 µM). Besides, the “in vivo antibacterial activity” value in data set [4] (7 mg/kg) was “better activity than vancomycin; also recorded: comparable activities with telavancin”. This compound also came in with a survival rate in data set [4] (setting [8]) of 93.3%.

The compound `CN[C@H](CC(C)C)C(=O)N[C@H]1C(=O)N[C@@H](CC(N)=O)C(=O)N[C@H]2C(=O)N[C@H]3C(=O)N[C@H](C(=O)N[C@H](C(=O)O)c4cc(O)cc(O)c4-c4cc3ccc4O)[C@H](O)c3ccc(c(Cl)c3)Oc3cc2cc(c3O[C@@H]2O[C@H](CO)[C@@H](O)[C@H](O)[C@H]2O[C@H]2C[C@](C)(N)[C@H](O)[C@H](C)O2)Oc2ccc(cc2Cl)[C@H]1O` [Vanco., vancomycin] displayed a VSS_obs in data set [1] of 3.076 ± 0.175 L/kg. The same compound came in with an MIC in data set [2] of 2 µg/mL (≈ 1.38 µM). In data set [5] (setting [9]), this compound returned an AUCINF_obs of 1271 ± 347 ng·h/mL, an AUClast of 1242 ± 335 ng·h/mL, a CL_obs of 68.7 ± 18 mL/min/kg and an MRTINF_obs of 0.790 ± 0.26 h. This compound came in with a T1/2 in data set [5] (setting [9]) of 0.597 ± 0.208 h. Moreover, in data set [3] (Staphylococcus aureus; S. aureus Mu50, 37° C., 16 h; read-out: MIC Mu50), the MIC was found to be 8 µg/mL (≈ 5.52 µM). This compound also registered a survival rate in data set [4] (in vivo, ip, 7 mg/kg) of 6.6%.
